Measured values: paper PMC6572135, “N-Methyl-D-glucamine–Calix[4]resorcinarene Conjugates: Self-Assembly and Biological Properties” (Molecules, 2019)

Test: Conductometry, critical aggregation concentration
Assay type: physicochemical
Conditions: water solution, 25 °C; GCR-2 in the presence of two-fold excess of MG
Description: Firstly, self-assembly of GCR-1 was studied by conductometric measurements (Figure 1). Specific conductivity increases proportionately with the GCR-1 concentration in water solution. Inflection on the plot appears at 14 mM, and after this critical aggregation concentration (CAC) the increment rate of conductivity reduces because the aggregates transfer charge less efficiently than monomers. Remarkably, modification of calix[4]resorcinarene by N-methyl-D-glucamine fragment facilitates self-aggregation of macrocycle in water medium (Figure 1). The CAC value for calix[4]resorcinarene (CR-1) without meglumine units at the upper rim is 20 mM that is greater than that for meglumine-modified calix[4]resorcinarene. The driving forces of intermolecular aggregates’ formation are probably hydrogen bonds between hydroxyl groups on the GCR-1 upper rim, so the presence of additional OH-groups in the meglumine group reinforces this noncovalent interaction. A stable pH value, which can be observed over a wide range of concentrations, verifies that the N-methyl-D-glucamine fragment is an effective buffer component (Figure S4). […] As a result, the aggregation of this calix[4]resorcinarene was studied in water solutions at the presence of two-fold excess of N-methyl-D-glucamine (MG). […] Specific conductivity values were measured at least three times for each concentration. […]

Substance: Sulfonatoethylcalix[4]resorcinarene [CR-1, reference compound]
- CAC, conductometry: 20 mM
